Test results published in patent US11026943B2, “Aminoquinoline derivatives and uses thereof” (UNIVERSITY OF DELHI, priority 2012, dated 2021).

What was measured:
[1] = tested on: murine microglial BV-2 cells; type: cell-based, mouse; details: 10 ng/ml LPS for 4 hrs, AQ 10 and 15 μM
Protocol: To prepare primary cultures of DA neurons, the ventral mesencephalon was removed from 14 day gestation Sprague Dawley rat embryo (Charles River, Cambridge, Mass.). Tissues were incubated with 0.01% trypsin in MEM (MEM, Invitrogen) for 10 min at 37° C. and triturated using a constricted Pasteur pipette. DA neurons were plated at 1.0×10^5 cells per 9 mm diameter glass cover slip precoated with 100 μg/ml poly-D-lysine (Sigma, St. Louis, Mo.) and 4 μg/ml laminin (Invitrogen). DA neurons were maintained at 37° C. in a humidified 5% CO2 atmosphere in minimum essential medium supplemented with 10% FBS (Hyclone), 2 mM glutamine and 6.0 g/l glucose. At 5 or 6 days in vitro, DA neurons were washed with MEM and treated with various experimental reagents for the time periods indicated. Reagents used were 6-OHDA (Sigma), N-acetyl-cysteine, N-benzyloxycarbonyl-Val-Ala-Asp-fluoromethylketone (Z-VAD-fink; Enzyme Systems Products, Livermore, Calif.). BV-2 cells, a microglial-like mouse cell line, were thawed and passaged until logarithmic growth was achieved. Cell cultures were maintained in 6-well culture plate (Corning Costar, Corning, N.Y.) at a concentration of 1.0×10^5 cells per well, in the growth medium consisting of DMEM (Sigma, St. Louis, Mo.), supplemented with 10% fetal bovine serum (FBS; Hyclone) heat inactivated at 56° C. for 30 min, 2 mM L-glutamine(Sigma) and 1× Pen-Strep (Invitrogen). […]

[2] = tested on: 6-OHDA-lesioned rats; assay: 6-OHDA-lesioned rat model of PD (amphetamine rotation, TH+ and Iba-1 counts); type: in vivo
Protocol: Cells were fixed in 4% paraformaldehyde (PFA) for 20 min, washed and then incubated with blocking buffer [PBS, 10% goat serum (Invitrogen), 0.3% Triton X-100 (Sigma)] for 1 hour. Cells were then incubated overnight at 4° C. with primary antibodies with the primary antibody in PBS containing 1% normal goat serum and 0.1% Triton X-100. A rabbit polyclonal anti-TH antibody (1:500; Pel-Freez, Rogers, Ark.) was used as a primary antibody. Following washes with PBS, appropriate fluorescence-tagged secondary antibodies (Jackson Immunoresearch Laboratories, West Grove, Pa.) were used for visualization. Stained samples were mounted in […] with DAPI mounting solution (Vector Laboratories INC., Burlingame, Calif.) and photographed using epifluorescence microscope (Leica). […] The tissues were washed three times in PBS and incubated for 2 h with the secondary fluorescence-conjugated goat anti-mouse and rabbit antibody (DAKO, Denmark, Cy3, FITC, both dilutions at 1:1,000) and tissues were washed and mounted in Vectorshield. […] Tissues were visualized using fluorescence microscopy. […] The protection percentage of total TH^+ cells in the lesioned hemisphere of each rat brain was calculated by dividing total TH^+ cells in the intact hemisphere of each rat brain and multiplying […]. […]

CCN(CC)Cc1cc(Nc2ccnc3cc(Cl)ccc23)ccc1O [AQ, amodiaquine]
LPS-induced expression of pro-inflammatory cytokines [1]: suppresses
6-OHDA-induced (amphetamine) rotation behavior ([2]; 4 and 6 weeks post lesion, AQ 20 mg/kg i.p. twice per day, 2 weeks): significantly ameliorated
numbers of Iba-1+ microglia in ipsilateral SN and STR ([2]; after AQ treatment): decreased to the levels of the contralateral sides
